This note sets out measurements from ChEMBL document CHEMBL1145591, “Synthesis of new UV-B light absorbents: (Acetylphenyl)glycosides with antioxidant activities” (Bioorg Med Chem Lett, 2008).

This assay in a line: Antioxidant activity after 1 hr by cytochrome-c reduction assay. On the set-up: scale not given: the % may be the effect or the level left. The format is functional.
Compound `CC(=O)c1cccc(O[C@@H]2O[C@H](CO)[C@@H](O)[C@H](O)[C@H]2O)c1` came in with an Activity of 51.7%.

On to `CC(=O)c1cccc(O[C@@H]2O[C@H](CO)[C@@H](O)[C@H](O)[C@@H]2O)c1`, for which the Activity was 71.5%.

As to `CC(=O)c1cccc(O[C@H]2O[C@H](CO)[C@@H](O)[C@H](O)[C@@H]2O)c1`, the Activity was found to be 66.9%.

For `CC(=O)c1cccc(O)c1`, the Activity was 0%.
